What was measured:
Details in all cases: 72 h
HepG2 [1] = assay: drug sensitivity score (DSS) for viability; higher = more toxic; extreme values may be limits of the assay
Calu-3 [2] = assay: as above
Vero E6 [3] = assay: as above
U2OS [4] = assay: as above
Caco-2 [5] = assay: cell viability relative to DMSO; higher = less toxic
HepG2 [6] = assay: as above
Calu-3 [7] = assay: as above
Vero E6 [8] = assay: as above
U2OS [9] = assay: as above
Caco-2 [10] = assay: drug sensitivity score (DSS) for viability; higher = more toxic; extreme values may be limits of the assay
HepG2 [11] = assay: relative viability EC50 (midpoint between 100% and the lowest measured viability); higher = less toxic
Vero E6 [12] = assay: as above
Calu-3 [13] = assay: as above
U2OS [14] = assay: as above

| SMILES | drug sensitivity score (HepG2 [1]) | drug sensitivity score (Calu-3 [2]) | drug sensitivity score (Vero E6 [3]) | drug sensitivity score (U2OS [4]) | cell viability (Caco-2 [5]; 1 nM) | cell viability (Caco-2 [5]; 10 nM) | cell viability (Caco-2 [5]; 100 nM) | cell viability (Caco-2 [5]; 1000 nM) | cell viability (Caco-2 [5]; 10000 nM) | cell viability (HepG2 [6]; 1 nM) | cell viability (HepG2 [6]; 10 nM) | cell viability (HepG2 [6]; 100 nM) | cell viability (HepG2 [6]; 1000 nM) | cell viability (HepG2 [6]; 10000 nM) | cell viability (Calu-3 [7]; 1 nM) | cell viability (Calu-3 [7]; 10 nM) | cell viability (Calu-3 [7]; 100 nM) | cell viability (Calu-3 [7]; 1000 nM) | cell viability (Calu-3 [7]; 10000 nM) | cell viability (Vero E6 [8]; 1 nM) | cell viability (Vero E6 [8]; 10 nM) | cell viability (Vero E6 [8]; 100 nM) | cell viability (Vero E6 [8]; 1000 nM) | cell viability (Vero E6 [8]; 10000 nM) | cell viability (U2OS [9]; 1 nM) | cell viability (U2OS [9]; 10 nM) | cell viability (U2OS [9]; 100 nM) | cell viability (U2OS [9]; 1000 nM) | cell viability (U2OS [9]; 10000 nM) | drug sensitivity score (Caco-2 [10]) | relative viability EC50 (HepG2 [11]) | relative viability EC50 (Vero E6 [12]) | relative viability EC50 (Calu-3 [13]) | relative viability EC50 (U2OS [14]) |
| --- | --- | --- | --- | --- | --- | --- | --- | --- | --- | --- | --- | --- | --- | --- | --- | --- | --- | --- | --- | --- | --- | --- | --- | --- | --- | --- | --- | --- | --- | --- | --- | --- | --- | --- |
| COc1ccc(-c2cc(=O)c3c(O)cc(O[C@@H]4O[C@H](CO[C@@H]5O[C@@H](C)[C@H](O)[C@@H](O)[C@H]5O)[C@@H](O)[C@H](O)[C@H]4O)cc3o2)cc1O [diosmin] | 0 | 0 | 0 | 0 |  |  |  |  |  |  |  |  |  |  |  |  |  |  |  |  |  |  |  |  |  |  |  |  |  |  |  |  |  |  |
| COC(=O)Nc1nc2cc(C(=O)c3ccc(F)cc3)ccc2[nH]1 [flubendazole] | 7.9 | 1.5 | 5.5 | 3.1 | 93% | 96.7% | 101% | 87.3% | 54.6% | 96.8% | 95.7% | 92.4% | 63.4% | 40.4% | 94.2% | 87.9% | 98.8% | 97.6% | 72.3% | 94.9% | 102% | 92.4% | 79% | 41.8% | 98.2% | 107% | 102% | 95.4% | 54.6% | 4.3 | 619 nM | 1380 nM |  |  |
| CN1CCN(c2ccc3nc(-c4c(N)c5c(F)cccc5[nH]c4=O)[nH]c3c2)CC1 [dovitinib] | 8.7 | 0.9 | 7.5 | 3.4 | 98.4% | 101% | 87.5% | 85.7% | 61.8% | 115% | 96.8% | 102% | 60.8% | 28.8% | 93.8% | 97.7% | 98.6% | 93.7% | 81.9% | 97.4% | 96.5% | 99.6% | 63.2% | 42.1% | 99% | 99.5% | 93.5% | 97.8% | 42.3% | 3.6 | 924 nM | 794 nM | > 10 µM | 2.88 µM |
| CNC(=O)c1ccccc1Nc1cc(Nc2ccc(N3CCOCC3)cc2OC)ncc1C(F)(F)F [VS-4718] | 9 | 6.6 | 7 | 6.2 | 102% | 91.8% | 96.4% | 82.5% | 62.5% | 98.6% | 93.2% | 99.1% | 65% | 19.3% | 108% | 97% | 86.4% | 68.3% | 74.5% | 103% | 101% | 85.8% | 69.2% | 54.4% | 98.5% | 94.2% | 95.2% | 82.1% | 35.1% | 3.6 | 1120 nM |  |  | 1.5 µM |
| Cc1cnc(C(=O)NCCc2ccc(S(=O)(=O)NC(=O)NC3CCCCC3)cc2)cn1 [glipizide] | 0 | 0 | 0 | 0 |  |  |  |  |  |  |  |  |  |  |  |  |  |  |  |  |  |  |  |  |  |  |  |  |  |  |  |  |  |  |
| C[C@H]1O[C@@H](n2cc(F)c(=O)[nH]c2=O)[C@H](O)[C@@H]1O [doxifluridine] | 1.8 | 0 | 0 | 0 | 82.5% | 106% | 93.3% | 99.3% | 65.6% | 96.6% | 96.1% | 76.3% | 108% | 56.6% | 98.6% | 116% | 91.3% | 98.9% | 90.9% | 108% | 96.1% | 103% | 105% | 87.5% | 99.9% | 99.4% | 100% | 101% | 90.6% | 1.7 |  | > 10000 nM | > 10 µM | > 10 µM |
| CC(C)(C)c1cc(C(=O)/C=C/c2ccc(C(=O)O)cc2)cc(C(C)(C)C)c1 [CH55] | 0 | 4.3 |  | 2 | 102% | 87.3% | 90.8% | 93.3% | 67% | 109% | 113% | 120% | 105% | 91.9% | 92% | 92.1% | 76.9% | 87.5% | 77.8% |  |  |  |  |  | 98.2% | 97.3% | 91% | 97.7% | 64.4% | 2.4 | > 10000 nM |  | > 10 µM |  |
| Nc1nc(Nc2ccc(S(N)(=O)=O)cc2)nn1C(=O)c1c(F)cccc1F | 8.6 | 2.6 | 1.5 | 5.1 | 107% | 100% | 101% | 106% | 63.7% | 103% | 103% | 92.8% | 76.7% | 8.9% | 102% | 97.1% | 98.1% | 127% | 33.2% | 107% | 104% | 106% | 99.1% | 68.7% | 102% | 102% | 100% | 104% | 2.1% | 1.4 | 1530 nM |  | 4.32 µM | 3.41 µM |
| CN1CCN(c2c(F)cc3c(=O)c(C(=O)O)cn4c3c2SCC4)CC1 [rufloxacin] | 0 | 0 | 0 | 0 | 95.1% | 105% | 93.9% | 91.7% | 73.8% | 98.9% | 99.5% | 104% | 103% | 92.2% | 92.1% | 103% | 97.5% | 84.4% | 101% | 99.9% | 101% | 96.4% | 101% | 95.7% | 99.8% | 100% | 94.7% | 104% | 96.8% | 1.7 | > 10000 nM | > 10000 nM | > 10 µM | > 10 µM |

Reference: the supplement of paper PMC13380429
